{"source": "PubChem BioAssay AID1963840", "about": "(Molecular Pharmacology Branch, DTP, NCI, 2024);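 further: spheroids exposed to compounds for seven days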;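 on viability, T/C: 100% = DMSO vehicle control viability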", "tested_on": "695427-040-R-J1-PDC complex spheroid viability", "assay": "Anticancer human tumor 695427-040-R-J1-PDC patient-derived colon adenocarcinoma cell line growth inhibition [POLQ]", "conditions": "for IC50: curve of first compound; for viability, T/C: stronger effect = lower value", "procedure,_shortened": "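Complex spheroid viability model combining PDC tumour cells with endothelial (HUVEC) and MSC stromal cells. Novobiocin, ART-558 or RP6685 were tested singly and in combination with standard and investigational anticancer drugs. Each was titrated in half-log steps from near clinical Cmax, or from 10 microM where Cmax was unknown.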", "key": {"[1]": {"conditions": "second compound 0.0316 µM, first compound 0.0316 µM"}, "[2]": {"conditions": "second compound 0.0316 µM, first compound 0.1 µM"}, "[3]": {"conditions": "second compound 0.0316 µM, first compound 0.316 µM"}, "[4]": {"conditions": "second compound 0.0316 µM, first compound 1 µM"}, "[5]": {"conditions": "second compound 0.0316 µM, first compound 3.16 µM"}, "[6]": {"conditions": "second compound 0.0316 µM, first compound 10 µM"}, "[7]": {"conditions": "second compound 0.1 µM, first compound 0.0316 µM"}, "[8]": {"conditions": "second compound 0.1 µM, first compound 0.1 µM"}, "[9]": {"conditions": "second compound 0.1 µM, first compound 0.316 µM"}, "[10]": {"conditions": "second compound 0.1 µM, first compound 1 µM"}, "[11]": {"conditions": "second compound 0.1 µM, first compound 3.16 µM"}, "[12]": {"conditions": "second compound 0.1 µM, first compound 10 µM"}, "[13]": {"conditions": "second compound 0.316 µM, first compound 0.0316 µM"}, "[14]": {"conditions": "second compound 0.316 µM, first compound 0.1 µM"}, "[15]": {"conditions": "second compound 0.316 µM, first compound 0.316 µM"}, "[16]": {"conditions": "second compound 0.316 µM, first compound 1 µM"}, "[17]": {"conditions": "second compound 0.316 µM, first compound 3.16 µM"}, "[18]": {"conditions": "second compound 0.316 µM, first compound 10 µM"}, "[19]": {"conditions": "second compound 1 µM, first compound 0.0316 µM"}, "[20]": {"conditions": "second compound 1 µM, first compound 0.1 µM"}, "[21]": {"conditions": "second compound 1 µM, first compound 0.316 µM"}, "[22]": {"conditions": "second compound 1 µM, first compound 1 µM"}, "[23]": {"conditions": "second compound 1 µM, first compound 3.16 µM"}, "[24]": {"conditions": "second compound 1 µM, first compound 10 µM"}, "[25]": {"conditions": "second compound 3.16 µM, first compound 0.0316 µM"}, "[26]": {"conditions": "second compound 3.16 µM, first compound 0.1 µM"}, "[27]": {"conditions": "second compound 3.16 µM, first compound 0.316 µM"}, "[28]": {"conditions": "second compound 3.16 µM, first compound 1 µM"}, "[29]": {"conditions": "second compound 3.16 µM, first compound 3.16 µM"}, "[30]": {"conditions": "second compound 3.16 µM, first compound 10 µM"}, "[31]": {"conditions": "second compound 10 µM, first compound 0.0316 µM"}, "[32]": {"conditions": "second compound 10 µM, first compound 0.1 µM"}, "[33]": {"conditions": "second compound 10 µM, first compound 0.316 µM"}, "[34]": {"conditions": "second compound 10 µM, first compound 1 µM"}, "[35]": {"conditions": "second compound 10 µM, first compound 3.16 µM"}, "[36]": {"conditions": "second compound 10 µM, first compound 10 µM"}}}
{"smiles": "COc1cccc2c1C(=O)c1c(O)c3c(c(O)c1C2=O)CC(O)(C(=O)CO)CC3OC1CC(N)C(O)C(C)O1", "note": "(centres undefined) + COC1C(OC(N)=O)C(O)C(Oc2ccc3c(O)c(NC(=O)c4ccc(O)c(CC=C(C)C)c4)c(=O)oc3c2C)OC1(C)C", "values": [{"measurement": "IC50", "setting": "second compound 0.0316 µM", "result": "> 10", "unit": "µM"}, {"measurement": "IC50", "setting": "second compound 0.1 µM", "result": "> 10", "unit": "µM"}, {"measurement": "IC50", "setting": "second compound 0.316 µM", "result": "> 10", "unit": "µM"}, {"measurement": "IC50", "setting": "second compound 1 µM", "result": "> 10", "unit": "µM"}, {"measurement": "IC50", "setting": "second compound 3.16 µM", "result": "> 10", "unit": "µM"}, {"measurement": "IC50", "setting": "second compound 10 µM", "result": "> 10", "unit": "µM"}, {"measurement": "viability, T/C", "setting": "[1]", "result": 98.1, "unit": "%"}, {"measurement": "viability, T/C", "setting": "[2]", "result": 96.5, "unit": "%"}, {"measurement": "viability, T/C", "setting": "[3]", "result": 98, "unit": "%"}, {"measurement": "viability, T/C", "setting": "[4]", "result": 74, "unit": "%"}, {"measurement": "viability, T/C", "setting": "[5]", "result": 68.2, "unit": "%"}, {"measurement": "viability, T/C", "setting": "[6]", "result": 54.5, "unit": "%"}, {"measurement": "viability, T/C", "setting": "[7]", "result": 106, "unit": "%"}, {"measurement": "viability, T/C", "setting": "[8]", "result": 95.2, "unit": "%"}, {"measurement": "viability, T/C", "setting": "[9]", "result": 95.1, "unit": "%"}, {"measurement": "viability, T/C", "setting": "[10]", "result": 74.4, "unit": "%"}, {"measurement": "viability, T/C", "setting": "[11]", "result": 64, "unit": "%"}, {"measurement": "viability, T/C", "setting": "[12]", "result": 51.5, "unit": "%"}, {"measurement": "viability, T/C", "setting": "[13]", "result": 102, "unit": "%"}, {"measurement": "viability, T/C", "setting": "[14]", "result": 91.6, "unit": "%"}, {"measurement": "viability, T/C", "setting": "[15]", "result": 84, "unit": "%"}, {"measurement": "viability, T/C", "setting": "[16]", "result": 79, "unit": "%"}, {"measurement": "viability, T/C", "setting": "[17]", "result": 65.9, "unit": "%"}, {"measurement": "viability, T/C", "setting": "[18]", "result": 48.6, "unit": "%"}, {"measurement": "viability, T/C", "setting": "[19]", "result": 98.4, "unit": "%"}, {"measurement": "viability, T/C", "setting": "[20]", "result": 95.1, "unit": "%"}, {"measurement": "viability, T/C", "setting": "[21]", "result": 92.1, "unit": "%"}, {"measurement": "viability, T/C", "setting": "[22]", "result": 81.1, "unit": "%"}, {"measurement": "viability, T/C", "setting": "[23]", "result": 68.3, "unit": "%"}, {"measurement": "viability, T/C", "setting": "[24]", "result": 50.3, "unit": "%"}, {"measurement": "viability, T/C", "setting": "[25]", "result": 99.4, "unit": "%"}, {"measurement": "viability, T/C", "setting": "[26]", "result": 98, "unit": "%"}, {"measurement": "viability, T/C", "setting": "[27]", "result": 88.9, "unit": "%"}, {"measurement": "viability, T/C", "setting": "[28]", "result": 75.7, "unit": "%"}, {"measurement": "viability, T/C", "setting": "[29]", "result": 70.1, "unit": "%"}, {"measurement": "viability, T/C", "setting": "[30]", "result": 54.5, "unit": "%"}, {"measurement": "viability, T/C", "setting": "[31]", "result": 103, "unit": "%"}, {"measurement": "viability, T/C", "setting": "[32]", "result": 90.5, "unit": "%"}, {"measurement": "viability, T/C", "setting": "[33]", "result": 105, "unit": "%"}, {"measurement": "viability, T/C", "setting": "[34]", "result": 87.3, "unit": "%"}, {"measurement": "viability, T/C", "setting": "[35]", "result": 67.5, "unit": "%"}, {"measurement": "viability, T/C", "setting": "[36]", "result": 55.8, "unit": "%"}]}
{"smiles": "O=c1[nH]cc(F)c(=O)[nH]1", "note": "+ COC1C(OC(N)=O)C(O)C(Oc2ccc3c(O)c(NC(=O)c4ccc(O)c(CC=C(C)C)c4)c(=O)oc3c2C)OC1(C)C", "values": [{"measurement": "IC50", "setting": "second compound 0.0316 µM", "result": "> 10", "unit": "µM"}, {"measurement": "IC50", "setting": "second compound 0.1 µM", "result": "> 10", "unit": "µM"}, {"measurement": "IC50", "setting": "second compound 0.316 µM", "result": "> 10", "unit": "µM"}, {"measurement": "IC50", "setting": "second compound 1 µM", "result": "> 10", "unit": "µM"}, {"measurement": "IC50", "setting": "second compound 3.16 µM", "result": "> 10", "unit": "µM"}, {"measurement": "IC50", "setting": "second compound 10 µM", "result": "> 10", "unit": "µM"}, {"measurement": "viability, T/C", "setting": "[1]", "result": 95.8, "unit": "%"}, {"measurement": "viability, T/C", "setting": "[2]", "result": 101, "unit": "%"}, {"measurement": "viability, T/C", "setting": "[3]", "result": 111, "unit": "%"}, {"measurement": "viability, T/C", "setting": "[4]", "result": 103, "unit": "%"}, {"measurement": "viability, T/C", "setting": "[5]", "result": 103, "unit": "%"}, {"measurement": "viability, T/C", "setting": "[6]", "result": 107, "unit": "%"}, {"measurement": "viability, T/C", "setting": "[7]", "result": 106, "unit": "%"}, {"measurement": "viability, T/C", "setting": "[8]", "result": 107, "unit": "%"}, {"measurement": "viability, T/C", "setting": "[9]", "result": 108, "unit": "%"}, {"measurement": "viability, T/C", "setting": "[10]", "result": 106, "unit": "%"}, {"measurement": "viability, T/C", "setting": "[11]", "result": 112, "unit": "%"}, {"measurement": "viability, T/C", "setting": "[12]", "result": 97.2, "unit": "%"}, {"measurement": "viability, T/C", "setting": "[13]", "result": 114, "unit": "%"}, {"measurement": "viability, T/C", "setting": "[14]", "result": 106, "unit": "%"}, {"measurement": "viability, T/C", "setting": "[15]", "result": 112, "unit": "%"}, {"measurement": "viability, T/C", "setting": "[16]", "result": 99.5, "unit": "%"}, {"measurement": "viability, T/C", "setting": "[17]", "result": 109, "unit": "%"}, {"measurement": "viability, T/C", "setting": "[18]", "result": 96.4, "unit": "%"}, {"measurement": "viability, T/C", "setting": "[19]", "result": 104, "unit": "%"}, {"measurement": "viability, T/C", "setting": "[20]", "result": 101, "unit": "%"}, {"measurement": "viability, T/C", "setting": "[21]", "result": 108, "unit": "%"}, {"measurement": "viability, T/C", "setting": "[22]", "result": 101, "unit": "%"}, {"measurement": "viability, T/C", "setting": "[23]", "result": 97.6, "unit": "%"}, {"measurement": "viability, T/C", "setting": "[24]", "result": 96.8, "unit": "%"}, {"measurement": "viability, T/C", "setting": "[25]", "result": 109, "unit": "%"}, {"measurement": "viability, T/C", "setting": "[26]", "result": 97.7, "unit": "%"}, {"measurement": "viability, T/C", "setting": "[27]", "result": 99.2, "unit": "%"}, {"measurement": "viability, T/C", "setting": "[28]", "result": 105, "unit": "%"}, {"measurement": "viability, T/C", "setting": "[29]", "result": 106, "unit": "%"}, {"measurement": "viability, T/C", "setting": "[30]", "result": 97.9, "unit": "%"}, {"measurement": "viability, T/C", "setting": "[31]", "result": 99.6, "unit": "%"}, {"measurement": "viability, T/C", "setting": "[32]", "result": 97.1, "unit": "%"}, {"measurement": "viability, T/C", "setting": "[33]", "result": 105, "unit": "%"}, {"measurement": "viability, T/C", "setting": "[34]", "result": 101, "unit": "%"}, {"measurement": "viability, T/C", "setting": "[35]", "result": 98.3, "unit": "%"}, {"measurement": "viability, T/C", "setting": "[36]", "result": 101, "unit": "%"}]}
